# Test results from patent publication US9255110B2 (Hoffmann-La Roche Inc., priority 2010, dated 2016).
# Biological target: IRAK-4 (Homo sapiens (Human), UniProt Q9NWZ3)
# Test: In vitro IRAK-4 kinase assay
# Format: biochemical
# Conditions: purified recombinant IRAK-4, 50 uM ATP, 33P peptide phosphorylation
# Method: Purified recombinant IRAK-4 protein was incubated with 250 uM synthetic peptide ([…]) in 30 ul of kinase buffer including (20 mM MOPS pH7.2, 25 mM beta glycerol phosphate, 5 mM EGTA, 1 mM sodium orthovanadate, 1 mM DTT, 50 uM ATP, 20 mM MgCl2, 10 uCi γ-^33P, 0.1% BSA) for the indicated time. For purified recombinant IRAK-1 protein kinase assay, 50 uM ATP was used. A 25 ul aliquot of the reaction mixture was transferred on to p81 phosphocellulose squares (Upstate Biotechnology, Lake Placid, N.Y.). The assay squares were washed three times with 0.75% phosphoric acid and once with acetone. Enzyme activity was measured by determining the bound radioactivity by liquid scintillation counting.
# Chain of IRAK-4 (Q9NWZ3 whole entry, species assumed): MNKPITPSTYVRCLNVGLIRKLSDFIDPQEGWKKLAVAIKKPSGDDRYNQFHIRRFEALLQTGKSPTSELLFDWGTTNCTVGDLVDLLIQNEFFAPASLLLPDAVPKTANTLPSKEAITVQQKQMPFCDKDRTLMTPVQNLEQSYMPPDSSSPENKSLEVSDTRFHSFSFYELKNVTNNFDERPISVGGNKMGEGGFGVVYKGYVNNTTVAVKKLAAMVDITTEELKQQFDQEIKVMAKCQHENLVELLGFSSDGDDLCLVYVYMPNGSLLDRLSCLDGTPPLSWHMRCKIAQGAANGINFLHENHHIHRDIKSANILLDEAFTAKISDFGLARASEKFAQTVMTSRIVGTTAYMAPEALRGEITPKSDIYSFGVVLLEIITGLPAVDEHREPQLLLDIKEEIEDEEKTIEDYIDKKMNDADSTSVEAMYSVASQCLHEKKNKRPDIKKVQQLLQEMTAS
row,Compound,IC50 [nM]
1,"O=C(Nc1cc(Cl)ccc1N1CCCC1)c1cnn2cccnc12 [Example 78, Pyrazolo[1,5-alpha]pyrimidine-3-carboxylic acid (5-chloro-2-pyrrolidin-1-yl-phenyl)-amide]",312
2,"COc1cc2[nH]ncc2cc1NC(=O)c1cnn2cccnc12 [Example 69, Pyrazolo[1,5-alpha]pyrimidine-3-carboxylic acid (6-methoxy-1H-indazol-5-yl)-amide]",231
3,"COc1cc2ccc(CO)cc2cc1NC(=O)c1cnn2cccnc12 [Example 82, Pyrazolo[1,5-alpha]pyrimidine-3-carboxylic acid (7-hydroxymethyl-3-methoxy-naphthalen-2-yl)-amide]",358
4,"Cc1ncoc1COc1ccc(Cl)cc1NC(=O)c1cnn2cccnc12 [Example 121, Pyrazolo[1,5-alpha]pyrimidine-3-carboxylic acid [5-chloro-2-(4-methyl-oxazol-5-ylmethoxy)-phenyl]-amide]",1550
5,"O=C(Nc1cc(Cl)ccc1OC(F)F)c1cnn2cccnc12 [Example 107, Pyrazolo[1,5-alpha]pyrimidine-3-carboxylic acid (5-chloro-2-difluoromethoxy-phenyl)-amide]",717
6,"2-(cis-2-amino-cyclohexylamino)-thieno[3,2-d]pyrimidine-7-carboxylic acid (5,6-dimethoxy-pyridin-2-yl)-amide [Example 27]",31
7,COc1cnc2c(C(=O)Nc3cc(Cl)ccc3N3CCC(CO)CC3)cnn2c1 [Example 29],33
8,"Cc1cc2cc(-c3ccc(CO)cc3)c(NC(=O)c3cnn4cccnc34)cc2[nH]1 [Example 36, Pyrazolo[1,5-alpha]pyrimidine-3-carboxylic acid [5-(4-hydroxymethyl-phenyl)-2-methyl-1H-indol-6-yl]-amide]",52
9,"NCC1CCN(c2c(N)cccc2NC(=O)c2cnn3cccnc23)CC1 [Example 59, Pyrazolo[1,5-alpha]pyrimidine-3-carboxylic acid [3-amino-2-(4-aminomethyl-piperidin-1-yl)-phenyl]-amide]",133
10,"O=C(Nc1cc(Cl)ccc1N1CCCC(O)C1)c1cnn2cccnc12 (stereo not drawn) [Example 91, Pyrazolo[1,5-alpha]pyrimidine-3-carboxylic acid [5-chloro-2-(3-hydroxy-piperidin-1-yl)-phenyl]-amide]",474
11,"O=C(Nc1cc(Cl)ccc1OC1CCC(CO)C1)c1cnn2cccnc12 (stereo not drawn) [Example 77, Pyrazolo[1,5-alpha]pyrimidine-3-carboxylic acid [5-chloro-2-(3-hydroxymethyl-cyclopentyloxy)-phenyl]-amide]",306
12,"COc1cc2cc[nH]c2cc1NC(=O)c1cnn2cccnc12 [Example 110, Pyrazolo[1,5-alpha]pyrimidine-3-carboxylic acid (5-methoxy-1H-indol-6-yl)-amide]",787
13,"O=C(Nc1cc(Cl)ccc1N1CCC(O)C1)c1cnn2cccnc12 (stereo not drawn) [Example 95, Pyrazolo[1,5-alpha]pyrimidine-3-carboxylic acid [5-chloro-2-(3-hydroxy-pyrrolidin-1-yl)-phenyl]-amide]",493
14,"CN1CCN(c2ccc(Cl)cc2NC(=O)c2cnn3cccnc23)CC1 [Example 97, Pyrazolo[1,5-alpha]pyrimidine-3-carboxylic acid [5-chloro-2-(4-methyl-piperazin-1-yl)-phenyl]-amide]",512
15,"COc1cc2ncccc2cc1NC(=O)c1csc2cnc(NCC(C)C)nc12 [Example 73, 2-Isobutylamino-thieno[3,2-d]pyrimidine-7-carboxylic acid (7-methoxy-quinolin-6-yl)-amide]",271
16,"COc1cc2ccccc2cc1NC(=O)c1cnn2cccnc12 [Example 104, Pyrazolo[1,5-alpha]pyrimidine-3-carboxylic acid (3-methoxy-naphthalen-2-yl)-amide]",613
17,"COc1cc(C(=O)Nc2ccccc2)ccc1NC(=O)c1cnn2cccnc12 [Example 89, Pyrazolo[1,5-alpha]pyrimidine-3-carboxylic acid (2-methoxy-4-phenylcarbamoyl-phenyl)-amide]",455
18,"COc1cnc2c(C(=O)Nc3cc(Cl)ccc3OC3CCC(O)CC3)cnn2c1 (stereo not drawn) [Example 76, 6-Methoxy-pyrazolo[1,5-a]pyrimidine-3-carboxylic acid [5-chloro-2-(4-hydroxy-cyclohexyloxy)-phenyl]-amide]",301
19,"O=C(Nc1cc(Cl)ccc1OCCC(O)CO)c1cnn2cccnc12 (stereo not drawn) [Example 96, Pyrazolo[1,5-alpha]pyrimidine-3-carboxylic acid [5-chloro-2-(3,4-dihydroxy-butoxy)-phenyl]-amide]",506
20,"NCC1CCN(c2ccc(Cl)cc2NC(=O)c2cnn3cccnc23)CC1 [Example 31, Pyrazolo[1,{tildeover (5)}alpha] pyrimidine-3-carboxylic acid [2-(4-aminomethyl-piperidin-1-yl)-5-chloro-phenyl]-amide]",37
21,"CN(C)c1ccc(Cl)cc1NC(=O)c1cnn2cccnc12 [Example 108, Pyrazolo[1,5-alpha]pyrimidine-3-carboxylic acid (5-chloro-2-dimethylamino-phenyl)-amide]",739
22,"CSc1ccc(Cl)cc1NC(=O)c1cnn2cccnc12 [Example 111, Pyrazolo[1,5-alpha]pyrimidine-3-carboxylic acid (5-chloro-2-methylsulfanyl-phenyl)-amide]",798
23,"O=C(Nc1cccc(NCCO)c1N1CCCCC1)c1cnn2cccnc12 [Example 114, Pyrazolo[1,{tildeover (5)}alpha] pyrimidine-3-carboxylic acid [3-(2-hydroxy-ethylamino)-2-piperidin-1-yl-phenyl]-amide]",1030

# More lines, now with the values ahead:
row,IC50 [nM],Compound
1,3770,"COc1ccc(C)cc1NC(=O)c1cnn2cccnc12 [Example 153, Pyrazolo[1,5-alpha]pyrimidine-3-carboxylic acid (2-methoxy-5-methyl-phenyl)-amide]"
2,4300,"COC(=O)COc1ccc(Cl)cc1NC(=O)c1cnn2cccnc12 [Example 160, {4-Chloro-2-[(pyrazolo[1,5-alpha]pyrimidine-3-carbonyl)-amino]-phenoxy}-acetic acid methyl ester]"
3,1620,"COc1cc(C(=O)NCCO)ccc1NC(=O)c1csc2cncnc12 [Example 122, Thieno[3,2-d]pyrimidine-7-carboxylic acid [4-(2-hydroxy-ethylcarbamoyl)-2-methoxy-phenyl]-amide]"
4,2220,"O=C(Nc1cc(Cl)ccc1Oc1ccc(O)cc1)c1cnn2cccnc12 [Example 130, Pyrazolo[1,5-alpha]pyrimidine-3-carboxylic acid [5-chloro-2-(4-hydroxy-phenoxy)-phenyl]-amide]"
5,3400,"CN(CCCO)c1ccc(Cl)cc1NC(=O)c1cnn2cccnc12 [Example 149, Pyrazolo[1,5-alpha]pyrimidine-3-carboxylic acid {5-chloro-2-[(3-hydroxy-propyl)-methyl-amino]-phenyl}-amide]"
6,7340,"COc1ccccc1NC(=O)c1cnn2cccnc12 [Example 171, Pyrazolo[1,5-alpha]pyrimidine-3-carboxylic acid (2-methoxy-phenyl)-amide]"
7,2960,"COc1cc(C(=O)NCCO)ccc1NC(=O)c1cnn2cccnc12 [Example 146, Pyrazolo[1,5-alpha]pyrimidine-3-carboxylic acid [4-(2-hydroxy-ethylcarbamoyl)-2-methoxy-phenyl]-amide]"
8,6560,"Cc1ccn2ncc(C(=O)Nc3cc(Cl)ccc3OC3CCC(O)CC3)c2n1 (stereo not drawn) [Example 170, 5-Methyl-pyrazolo[1,5-alpha]pyrimidine-3-carboxylic acid [5-chloro-2-(4-hydroxy-cyclohexyloxy)-phenyl]-amide]"
9,5200,"COc1cc(-c2ccccc2)ccc1NC(=O)c1cnn2cccnc12 [Example 165, Pyrazolo[1,5-alpha]pyrimidine-3-carboxylic acid (3-methoxy-biphenyl-4-yl)-amide]"
10,2050,"O=C(Nc1cc(Cl)ccc1-c1cccc(O)c1)c1cnn2cccnc12 [Example 125, Pyrazolo[1,5-alpha]pyrimidine-3-carboxylic acid (4-chloro-3′-hydroxy-biphenyl-2-yl)-amide]"
11,9420,"O=C(Nc1cc(Cl)ccc1OC1CCC(O)CC1)c1cnn2cc(CCCO)cnc12 (stereo not drawn) [Example 178, 6-(3-Hydroxy-propyl)-pyrazolo[1,5-alpha]pyrimidine-3-carboxylic acid [5-chloro-2-(4-hydroxy-cyclohexyloxy)-phenyl]-amide]"
12,2140,"COc1ccc(Br)cc1NC(=O)c1cnn2cccnc12 [Example 127, Pyrazolo[1,5-alpha]pyrimidine-3-carboxylic acid (5-bromo-2-methoxy-phenyl)-amide]"
13,5940,"COc1cc(-c2ccccc2)c(C)cc1NC(=O)c1cnn2cccnc12 [Example 167, Pyrazolo[1,5-alpha]pyrimidine-3-carboxylic acid (5-methoxy-2-methyl-biphenyl-4-yl)-amide]"
14,2310,"O=C(Nc1nc2ccccc2n1CCCO)c1csc2cncnc12 [Example 136, Thieno[3,2-d]pyrimidine-7-carboxylic acid [1-(3-hydroxy-propyl)-1H-benzoimidazol-2-yl]-amide]"
15,2240,"COc1ccc(Cl)cc1NC(=O)c1csc2cnc(NCCO)nc12 [Example 132, 2-(2-Hydroxy-ethylamino)-thieno[3,2-d]pyrimidine-7-carboxylic acid (5-chloro-2-methoxy-phenyl)-amide]"
16,2630,"O=C(Nc1cc(Cl)ccc1OCc1cccc(O)c1)c1cnn2cccnc12 [Example 141, Pyrazolo[1,5-alpha]pyrimidine-3-carboxylic acid [5-chloro-2-(3-hydroxy-benzyloxy)-phenyl]-amide]"
